In publication PMC6273767, “Comparative Studies of Interactions between Fluorodihydroquinazolin Derivatives and Human Serum Albumin with Fluorescence Spectroscopy” (Molecules, 2016):

Target: T1, human serum albumin (HSA) (Homo sapiens, UniProt P02768)
T1 construct: gene ALB; mature serum albumin, 585 residues (signal and propeptide removed)
Test: tryptophan fluorescence quenching, modified Stern-Volmer
Assay type: binding
Settings: 298 K, pH 7.4, 0.1 M Tris, 0.1 M NaCl, 1 µM HSA, excitation 280 nm; mainly site II (subdomain IIIA)
From the text: tryptophan fluorescence quenching, modified Stern-Volmer on human serum albumin (HSA)

T1 sequence (P02768 25-609): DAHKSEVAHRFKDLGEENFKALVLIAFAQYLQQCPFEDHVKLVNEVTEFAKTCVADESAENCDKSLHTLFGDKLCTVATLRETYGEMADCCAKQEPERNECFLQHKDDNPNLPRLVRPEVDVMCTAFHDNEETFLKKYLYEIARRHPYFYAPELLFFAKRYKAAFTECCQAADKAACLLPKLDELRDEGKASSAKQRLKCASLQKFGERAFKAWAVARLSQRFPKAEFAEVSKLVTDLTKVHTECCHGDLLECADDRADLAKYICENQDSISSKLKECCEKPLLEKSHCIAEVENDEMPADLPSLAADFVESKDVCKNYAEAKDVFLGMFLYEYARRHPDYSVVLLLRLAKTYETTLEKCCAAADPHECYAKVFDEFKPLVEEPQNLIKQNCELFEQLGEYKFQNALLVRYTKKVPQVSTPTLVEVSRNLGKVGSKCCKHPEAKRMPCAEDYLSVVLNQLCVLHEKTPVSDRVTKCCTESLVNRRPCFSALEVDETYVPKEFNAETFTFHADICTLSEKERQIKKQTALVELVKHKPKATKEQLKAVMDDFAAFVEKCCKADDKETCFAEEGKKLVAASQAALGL

Row | Ka (×10^4 M^-1) | Compound
1 | 2.73 × 10^4 M^−1 | CC(C)(C)CC(=O)N1c2ccc(Cl)cc2C(=O)N(N=Cc2cccc(F)c2)C1c1ccccc1 (stereo not shown) [3c, 6-Chloro-1-(3,3-dimethylbutanoyl)-3-(3-fluorobenzylideneamino)-2-phenyl-2,3-dihydroquinazolin-4(1H)-one]
2 | 2.16 × 10^4 M^−1 | CC(C)(C)CC(=O)N1c2ccc(Cl)cc2C(=O)N(N=Cc2ccccc2)C1c1ccccc1 (stereo not shown) [3a, 3-(Benzylideneamino)-6-chloro-1-(3,3-dimethylbutanoyl)-2-phenyl-2,3-dihydroquinazolin-4(1H)-one]
3 | 2.33 × 10^4 M^−1 | CC(C)(C)CC(=O)N1c2ccc(Cl)cc2C(=O)N(N=Cc2ccc(F)cc2)C1c1ccccc1 (stereo not shown) [3b, 6-Chloro-1-(3,3-dimethylbutanoyl)-3-(4-fluorobenzylideneamino)-2-phenyl-2,3-dihydroquinazolin-4(1H)-one]
4 | 2.46 × 10^4 M^−1 | CC(C)(C)CC(=O)N1c2ccc(Cl)cc2C(=O)N(N=Cc2ccccc2F)C1c1ccccc1 (stereo not shown) [3d, 6-Chloro-1-(3,3-dimethylbutanoyl)-3-(2-fluorobenzylideneamino)-2-phenyl-2,3-dihydroquinazolin-4(1H)-one]
